30 compounds from ChEMBL document CHEMBL4422631, “Investigation of stereoisomeric bisarylethenesulfonic acid esters for discovering potent and selective PTP1B inhibitors” (Eur J Med Chem, 2019) can be followed below.

Series [1] concerns the target T1, Tyrosine-protein phosphatase non-receptor type 1 (Homo sapiens, UniProt P18031).
T1 sequence (P18031 whole entry): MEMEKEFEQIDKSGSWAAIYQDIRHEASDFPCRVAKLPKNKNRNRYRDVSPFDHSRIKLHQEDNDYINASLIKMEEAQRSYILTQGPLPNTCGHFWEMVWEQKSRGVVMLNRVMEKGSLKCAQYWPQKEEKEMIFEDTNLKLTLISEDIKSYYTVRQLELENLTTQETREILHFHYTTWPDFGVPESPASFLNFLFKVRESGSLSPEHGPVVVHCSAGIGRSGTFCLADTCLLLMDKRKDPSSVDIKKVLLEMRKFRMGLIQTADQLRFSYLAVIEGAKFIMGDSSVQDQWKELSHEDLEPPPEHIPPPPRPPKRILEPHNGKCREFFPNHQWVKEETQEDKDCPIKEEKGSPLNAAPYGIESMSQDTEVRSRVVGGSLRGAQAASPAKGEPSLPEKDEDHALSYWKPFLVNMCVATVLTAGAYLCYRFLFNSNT
Nature of the series: Inhibition of PTP1B (unknown origin) using pNPP as substrate after 30 mins.

Series [2] in a line: Apparent permeability of compound at 10 uM at pH 7.4 after 12 hrs by PAMPA. The class given is ADME.
For series [3], the target named is T2, Tyrosine-protein phosphatase non-receptor type 2 (Homo sapiens, UniProt P17706).
T2 sequence (P17706 whole entry): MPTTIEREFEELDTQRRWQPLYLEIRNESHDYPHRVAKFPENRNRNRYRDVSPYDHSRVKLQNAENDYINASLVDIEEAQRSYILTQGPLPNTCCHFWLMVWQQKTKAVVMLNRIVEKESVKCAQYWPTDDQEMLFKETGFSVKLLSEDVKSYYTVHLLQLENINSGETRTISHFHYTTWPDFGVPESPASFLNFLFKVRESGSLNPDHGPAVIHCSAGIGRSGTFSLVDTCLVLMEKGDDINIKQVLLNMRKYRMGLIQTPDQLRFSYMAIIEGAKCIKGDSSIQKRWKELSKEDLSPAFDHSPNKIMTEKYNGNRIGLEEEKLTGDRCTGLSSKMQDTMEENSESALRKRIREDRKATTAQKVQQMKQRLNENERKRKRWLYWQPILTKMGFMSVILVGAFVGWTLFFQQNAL
Kind of series: Inhibition of TCPTP (unknown origin) using pNPP as substrate after 30 mins.

Series [4] concerns the target T3, Tyrosine-protein phosphatase non-receptor type 11 (Homo sapiens, UniProt Q06124).
T3 sequence (Q06124 whole entry): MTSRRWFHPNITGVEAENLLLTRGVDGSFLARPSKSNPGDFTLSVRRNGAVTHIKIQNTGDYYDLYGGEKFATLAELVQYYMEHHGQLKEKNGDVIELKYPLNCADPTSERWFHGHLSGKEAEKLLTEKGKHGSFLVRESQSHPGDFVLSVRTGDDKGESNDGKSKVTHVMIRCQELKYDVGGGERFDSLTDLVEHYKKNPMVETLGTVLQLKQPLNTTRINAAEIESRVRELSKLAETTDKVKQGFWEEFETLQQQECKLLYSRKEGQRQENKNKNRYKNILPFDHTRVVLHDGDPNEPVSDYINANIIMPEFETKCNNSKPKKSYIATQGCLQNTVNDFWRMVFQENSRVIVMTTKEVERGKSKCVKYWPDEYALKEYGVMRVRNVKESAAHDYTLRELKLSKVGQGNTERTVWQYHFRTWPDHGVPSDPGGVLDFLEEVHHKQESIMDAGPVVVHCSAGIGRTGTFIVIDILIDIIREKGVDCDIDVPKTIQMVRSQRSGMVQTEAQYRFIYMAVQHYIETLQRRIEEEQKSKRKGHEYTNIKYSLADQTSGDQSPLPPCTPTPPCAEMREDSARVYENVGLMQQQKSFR
Kind of series: Inhibition of SHP2 (unknown origin) using pNPP as substrate after 30 mins.

The target of series [5] is T4, Tyrosine-protein phosphatase non-receptor type 1 (Homo sapiens) (UniProt P18031).
T4 sequence (whole entry): T1 sequence (P18031 whole entry)
Nature of the series: Inhibition of PTP1B in human HepG2 cells assessed as increase in insulin stimulated glucose uptake at 10 uM preincubated for 24 hrs followed by insulin addition and measured after 10 mins by 2-NBDG dye-based FACS analysis relative to control. Details: scale not given: the % may be the effect or the level left. The class given is cell-based.

Series [6] deals with T4, Tyrosine-protein phosphatase non-receptor type 1 (Homo sapiens). Kind of series: Inhibition of PTP1B in human HepG2 cells assessed as increase in insulin stimulated glucose uptake at 5 uM preincubated for 24 hrs followed by insulin addition and measured after 10 mins by 2-NBDG dye-based FACS analysis relative to control. The class given is cell-based. Also on record: scale not given: the % may be the effect or the level left.

For series [7] the target is unchanged. Nature of the series: Inhibition of PTP1B in human HepG2 cells assessed as increase in insulin stimulated glucose uptake at 20 uM preincubated for 24 hrs followed by insulin addition and measured after 10 mins by 2-NBDG dye-based FACS analysis relative to control. The series is classed as cell-based. Also on record: scale not given: the % may be the effect or the level left.

As for `CCOS(=O)(=O)/C=C/c1ccc(O[C@@H]2CN(C(=O)c3ccc(Oc4ccccc4)cc3)C[C@H]2Oc2ccc(/C=C/S(=O)(=O)OCC)cc2)cc1`, the midpoint of inhibition in series [1], the IC50, lay at 2950 nM.
Turning to `CC(C)NCC(O)COc1cccc2ccccc12` (stereo unspecified) [PROPRANOLOL], in series [2], the Papp at 12 h, 10 µM was 8.71 ×10⁻⁶ cm/s.
In turn, `CCOS(=O)(=O)/C=C/c1ccc(O[C@@H]2CN(C(=O)C(=O)Nc3ccc(Oc4ccc(C(C)C)cc4)cc3)C[C@@H]2Oc2ccc(CCS(=O)(=O)OCC)cc2)cc1` came in with an IC50 in series [1] of 1390 nM.
On the same count and under the same terms, for `CCOS(=O)(=O)/C=C/c1ccc(O[C@@H]2CN(C(=O)C(=O)Nc3ccc(Oc4ccc(C(C)(C)C)cc4)cc3)C[C@H]2Oc2ccc(CCS(=O)(=O)OCC)cc2)cc1` the value was 430 nM; for `CCOS(=O)(=O)/C=C/c1ccc(O[C@@H]2CN(Cc3ccc(Oc4ccc(C(C)C)cc4)cc3)C[C@H]2Oc2ccc(/C=C/S(=O)(=O)OCC)cc2)cc1`, 6870 nM.
On the same count and under the same terms, for `CCOS(=O)(=O)/C=C/c1ccc(O[C@@H]2CN(C(=O)Nc3ccccc3)C[C@H]2Oc2ccc(/C=C/S(=O)(=O)OCC)cc2)cc1` the value was 3510 nM.
Turning to `CCOS(=O)(=O)/C=C/c1ccc(O[C@@H]2CNC[C@H]2Oc2ccc(/C=C/S(=O)(=O)OCC)cc2)cc1`, the results for the half-inhibitory concentration (IC50) in series [3], in series [1] and in series [4] were 29600 nM, 16800 nM and 23500 nM, respectively. Besides, the Papp at 12 h, 10 µM in series [2] stood at 0.93 ×10⁻⁶ cm/s.
The compound `CCOS(=O)(=O)/C=C/c1ccc(O[C@@H]2CN(C(=O)Nc3ccc(Oc4ccccc4)cc3)C[C@H]2Oc2ccc(/C=C/S(=O)(=O)OCC)cc2)cc1` had a half-maximal inhibitory concentration (IC50) in series [1] of 1930 nM.
In series [1], `CCOS(=O)(=O)/C=C/c1ccc(O[C@@H]2CN(C(=O)C(=O)Nc3ccc(Oc4ccccc4)cc3)C[C@@H]2Oc2ccc(CCS(=O)(=O)OCC)cc2)cc1` came in with an IC50 of 2790 nM.
In series [1], `CCOS(=O)(=O)/C=C/c1ccc(O[C@@H]2CN(C(=O)C(=O)Nc3ccc(Oc4ccc(C(C)(C)C)cc4)cc3)C[C@@H]2Oc2ccc(CCS(=O)(=O)OCC)cc2)cc1` gave a concentration for half-maximal inhibition (IC50) of 1170 nM.
As to `CCOS(=O)(=O)/C=C/c1ccc(O[C@@H]2CN(C(=O)C(=O)Nc3ccccc3)C[C@H]2Oc2ccc(/C=C/S(=O)(=O)OCC)cc2)cc1`, the half-inhibitory concentration (IC50) in series [3] came to 7840 nM; in series [1], 2520 nM; in series [4] it was 5650 nM. In addition, the Papp at 12 h, 10 µM in series [2] was found to be 1.27 ×10⁻⁶ cm/s.
In turn, `CCOS(=O)(=O)/C=C/c1ccc(O[C@@H]2CN(C(=O)Nc3ccc(Oc4ccc(C(C)C)cc4)cc3)C[C@H]2Oc2ccc(/C=C/S(=O)(=O)OCC)cc2)cc1` displayed an IC50 in series [1] of 1370 nM.
For the compound `CCOS(=O)(=O)/C=C/c1ccc(O[C@@H]2CN(C(=O)c3ccc(Oc4ccc(C(C)C)cc4)cc3)C[C@H]2Oc2ccc(/C=C/S(=O)(=O)OCC)cc2)cc1`, in series [1], the midpoint of inhibition, the IC50, lay at 3360 nM.
In series [1], `CCOS(=O)(=O)/C=C/c1ccc(O[C@@H]2CN(C(=O)C(=O)Nc3ccc(Oc4ccc(F)cc4)cc3)C[C@@H]2Oc2ccc(CCS(=O)(=O)OCC)cc2)cc1` displayed an IC50 of 1220 nM.
The compound `CCOS(=O)(=O)/C=C/c1ccc(O[C@@H]2CN(C(=O)C(=O)Nc3ccc(Oc4ccc(Cl)cc4)cc3)C[C@@H]2Oc2ccc(CCS(=O)(=O)OCC)cc2)cc1` gave a half-maximal inhibitory concentration (IC50) in series [1] of 1450 nM.
In series [1], `CCOS(=O)(=O)/C=C/c1ccc(O[C@@H]2CN(C(=O)C(=O)Nc3ccc(Oc4ccc5ccccc5c4)cc3)C[C@@H]2Oc2ccc(CCS(=O)(=O)OCC)cc2)cc1` gave an IC50 of 1260 nM.
For the compound `CCOS(=O)(=O)/C=C/c1ccc(O[C@@H]2CN(C(=O)c3ccccc3)C[C@H]2Oc2ccc(/C=C/S(=O)(=O)OCC)cc2)cc1`, half-maximal inhibition in series [1] (IC50) required 7810 nM.
On the same count and under the same terms, for `CCOS(=O)(=O)/C=C/c1ccc(O[C@@H]2CN(Cc3ccc(Oc4ccccc4)cc3)C[C@H]2Oc2ccc(/C=C/S(=O)(=O)OCC)cc2)cc1` the value was 7420 nM; for `CCCCCCc1ccc(NC(=O)C(=O)N2C[C@H](Oc3ccc(CCS(=O)(=O)OCC)cc3)[C@H](Oc3ccc(/C=C/S(=O)(=O)OCC)cc3)C2)cc1`, 1540 nM; for `CCOS(=O)(=O)/C=C/c1ccc(O[C@@H]2CN(C(=O)C(=O)Nc3ccc(Oc4ccc(C(C)C)cc4)cc3)C[C@H]2Oc2ccc(/C=C/S(=O)(=O)OCC)cc2)cc1`, 420 nM.
On the same count and under the same terms, for `CCOS(=O)(=O)/C=C/c1ccc(O[C@@H]2CN(C(=O)C(=O)Nc3ccc(Oc4ccc(F)cc4)cc3)C[C@H]2Oc2ccc(CCS(=O)(=O)OCC)cc2)cc1` the value was 460 nM; for `CCOS(=O)(=O)/C=C/c1ccc(O[C@@H]2CN(C(=O)C(=O)Nc3ccc(Oc4ccc(Br)cc4)cc3)C[C@@H]2Oc2ccc(CCS(=O)(=O)OCC)cc2)cc1`, 1510 nM.
On the same count and under the same terms, for `CCOS(=O)(=O)/C=C/c1ccc(O[C@@H]2CN(C(=O)C(=O)Nc3ccc(Oc4ccc(Cl)cc4)cc3)C[C@H]2Oc2ccc(CCS(=O)(=O)OCC)cc2)cc1` the value was 380 nM; for `CCCCCCc1ccc(NC(=O)C(=O)N2C[C@@H](Oc3ccc(/C=C/S(=O)(=O)OCC)cc3)[C@H](Oc3ccc(CCS(=O)(=O)OCC)cc3)C2)cc1`, 610 nM; for `CCOS(=O)(=O)/C=C/c1ccc(O[C@@H]2CN(C(=O)C(=O)Nc3ccc(Oc4ccc(Br)cc4)cc3)C[C@H]2Oc2ccc(CCS(=O)(=O)OCC)cc2)cc1`, 440 nM.
Turning to `CCc1ccc(CCOc2ccc(CC3SC(=O)NC3=O)cc2)nc1` (stereo unspecified), the Activity was 70.2% in series [5], 51.1% in series [6] and 78.9% in series [7].
Turning to `CCOS(=O)(=O)/C=C/c1ccc(O[C@@H]2CN(C(=O)C(=O)Nc3ccc(Oc4ccccc4)cc3)C[C@H]2Oc2ccc(/C=C/S(=O)(=O)OCC)cc2)cc1`, the half-maximal inhibitory concentration (IC50) in series [1] amounted to 1070 nM.
`CCOS(=O)(=O)/C=C/c1ccc(O[C@@H]2CN(C(=O)C(=O)Nc3ccc(Oc4ccc5ccccc5c4)cc3)C[C@H]2Oc2ccc(CCS(=O)(=O)OCC)cc2)cc1` returned a 50% inhibitory concentration (IC50) in series [1] of 360 nM.
For the compound `CCOS(=O)(=O)/C=C/c1ccc(O[C@H]2CNC[C@H]2Oc2ccc(/C=C/S(=O)(=O)OCC)cc2)cc1`, the IC50 was determined as 47800 nM in series [3], 27400 nM in series [1] and 55200 nM in series [4]. The Papp at 12 h, 10 µM in series [2] amounted to 0.87 ×10⁻⁶ cm/s.
On to `CCOS(=O)(=O)/C=C/c1ccc(O[C@@H]2CN(Cc3ccccc3)C[C@H]2Oc2ccc(/C=C/S(=O)(=O)OCC)cc2)cc1`, for which the half-maximal inhibitory concentration (IC50) in series [1] worked out at 9340 nM.
